Assay results as given in patent US9624247B2, “Pyrazolo-pyrrolidin-4-one derivatives as bet inhibitors and their use in the treatment of disease” (NOVARTIS AG, priority 2013, dated 2017).
Like-named read-outs stand apart in the source and are kept apart here.

Tests used:
BRD3 (His-Brd3(20-477)) = BRD3 (His-Brd3(20-477)) (Homo sapiens (Human), UniProt Q15059); assay: TR-FRET in-vitro binding assay for BRD3; conditions: acetyl-histone H4 peptide
Protocol: (§1) TR-FRET In-Vitro Binding Assays for BRD2, BRD3, and BRD4:
All assays were performed in 384 well microtiter plates. Each assay plate contained 8-point serial dilutions for 40 test compounds, plus 16 high- and 16 low controls. Liquid handling and incubation steps were done on an Innovadyne Nanodrop Express equipped with a robotic arm (Thermo CatX, Perkin Elmer/Caliper Twister II) and an incubator (Liconic STX40, Thermo Cytomat 2C450). The assay plates were prepared by addition of 50 nl per well of compound solution in 90% DMSO HummingBird nanodispenser (Zinsser Analytic). […] Reactions were incubated at 30° C. for 35 minutes. […] After 35 minutes incubation at 30° C., plates were measured in a Perkin Elmer EnVision multilabel reader.
(§2) Preparation of Compound Dilutions
(§3) Test compounds were dissolved in DMSO (10 mM) and transferred into 1.4 mL flat bottom or V-shaped Matrix tubes carrying a unique 2D matrix. The stock solutions were stored at […] if not used immediately. For the test procedure the vials were defrosted and identified by a scanner whereby a working sheet was generated that guided the subsequent working steps. Compound dilutions were made in 96 well plates. This format enabled the assay of maximally 40 individual test compounds at 8 concentrations (single points) including 4 reference compounds, if desired (known BET inhibitors from the prior art, for this and other assays of the type disclosed herein). The dilution protocol included the production of “pre-dilution plates”, “master plates” and “assay plates”.
(§4) Pre-dilution plates: 96 polypropylene well plates were used as pre-dilution plates. A total of 4 pre-dilution plates were prepared including 10 test compounds each on the plate positions A1-A10, one standard compound at A11 and one DMSO control at A12. All dilution steps were done on a HamiltonSTAR robot.
(§5) These plates were used directly for the assay which was performed in a total volume of 13.55 μL.

MV-4-11 cells = assay: Cell growth inhibition assay (CellTiter-Glo), MV-4-11; type: cell-based, human; conditions: MV-4-11, 4 days; for GI50: Homo sapiens, MV4-11, 96 h, half-maximal growth inhibition; for MV-4-11 TGI: total growth inhibition
Protocol: (§6) Cell Growth Inhibition Assay
(§7) The human leukemia cell lines MV-4-11, THP-1 and K-562 were employed to characterize the effect of BET inhibitors on cellular proliferation and viability. Cells were obtained from the American Type Culture Collection (ATCC) and cultured at 37° C. in a humidified 5% CO2 incubator in the following media: MV-4-11: DMEM high glucose (Animed #1-26F01-I), 10% FCS (Animed #2-01F26-I), 4 mM L-Glutamine (Animed #5-10K50), 1 mM Sodium Pyruvate (Animed #G03625P), lx Penicillin-Streptomycin (Animed #F12478P); K-562: Iscove's MEM (Animed #1-28F16-I), 10% FCS (Animed #2-01F26-I), 4 mM L-Glutamine (Animed #5-10K50), 1× Penicillin-Streptomycin (Animed #F12478P); THP-1: RPMI-1640 (Animed #1-41F01-I), 10% FCS (Animed #2-01F26-I), 2 mM L-Glutamine (Animed #5-10K50), 10 mM HEPES (Animed #5-31F100), 1 mM Sodium Pyruvate (Animed #G03625P), 1× Penicillin-Streptomycin (Animed #F12478P). The AML lines MV-4-11 and THP-1 are very sensitive to BET inhibitors and show massive cell death upon BET inhibition (Zuber et al., Nature, 478 (2011), 524-8). Compound-mediated suppression of cell proliferation/viability was assessed by quantification of cellular ATP levels using the CellTiter-Glo (CTG) reagent (Promega). Briefly, cells were seeded in 20 μl fresh medium into 384-well plates, followed by addition of 5 μl medium containing compound dilutions at 5-fold their final intended concentration. Dose-response effects were assessed by 3-fold serial dilutions of the test compound, starting at 10 μM. Following incubation of the cells for 4 days at 37° C. and 5% CO2, the effect of inhibitors on cell viability was quantified following addition of 20 μl CTG and luminescence quantification (integration time: 100 ms) as per vendor manual, using a correspondingly equipped Tecan M200 multi-mode platereader (TECAN, Switzerland). For data analysis, the assay background value determined in wells containing medium, but no cells, was subtracted from all data points. To enable differentiation of cytotoxic from cytostatic compounds, the number of viable cells is assessed relative to that observed at the time of compound addition using a separate cell plate (day 0). The effect of a particular test compound concentration on cell proliferation/viability is expressed as percentage of the background- and day 0-corrected luminescence reading obtained for cells treated with vehicle only (DMSO, 0.1% final concentration), which is set as 100%, whereas that luminescence reading for wells containing medium is set as −100%. Compound concentrations leading to half-maximal (IC50) and total growth inhibition (TGI) were determined using standard four parameter curve fitting.

BRD2 (His-Brd2(60-472)) = BRD2 (His-Brd2(60-472)) (Homo sapiens (Human), UniProt P25440); assay: TR-FRET in-vitro binding assay for BRD2; conditions: acetyl-histone H4 peptide
Sequence of BRD2 (His-Brd2(60-472)) (P25440 60-472): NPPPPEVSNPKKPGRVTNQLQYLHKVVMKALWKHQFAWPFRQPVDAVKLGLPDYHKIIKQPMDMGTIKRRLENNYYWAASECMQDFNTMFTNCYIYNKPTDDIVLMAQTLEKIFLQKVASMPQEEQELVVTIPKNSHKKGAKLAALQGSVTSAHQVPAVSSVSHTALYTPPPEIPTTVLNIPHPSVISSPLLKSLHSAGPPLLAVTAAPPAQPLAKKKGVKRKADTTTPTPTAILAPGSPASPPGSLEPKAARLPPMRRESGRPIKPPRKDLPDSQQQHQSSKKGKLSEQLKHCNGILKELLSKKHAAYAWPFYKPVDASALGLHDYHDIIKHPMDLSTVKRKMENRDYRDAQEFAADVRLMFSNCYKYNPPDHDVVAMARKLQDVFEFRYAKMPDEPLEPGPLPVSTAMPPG
Protocol: as §1
(§8) All assays were performed in 384 well microtiter plates. Each assay plate contained 8-point serial dilutions for 40 test compounds, plus 16 high- and 16 low controls. Liquid handling and incubation steps were done on an Innovadyne Nanodrop Express equipped with a robotic arm (Thermo CatX, Perkin Elmer/Caliper Twister II) and an incubator (Liconic STX40, Thermo Cytomat 2C450). The assay plates were prepared by addition of 50 nl per well of compound solution in 90% DMSO HummingBird nanodispenser (Zinsser Analytic). The assay was started by stepwise addition of 4.5 μl per well of bromo domain protein (50 mM HEPES, pH 7.5, 0.005% Tween20, 0.1% BSA, 50 mM NaCl, 45 nM His-Brd2(60-472) or 45 nM His-Brd3(20-477) or 45 nM His-Brd4(44-477) all proteins produced in-house) and 4.5 μl per well of peptide solution (50 mM HEPES, pH 7.5, 0.005% Tween20, 0.1% BSA, 50 mM NaCl, 60 nM acetyl-histone H4 (AcK 5, 8, 12, 16) (Biosyntan GmbH)). Reactions were incubated at 30° C. for 35 minutes. […] After 35 minutes incubation at 30° C., plates were measured in a Perkin Elmer EnVision multilabel reader. Concentrations causing 50% inhibition (IC50 values) were determined from percent inhibition values at different compound concentrations by non-linear regression analysis.
as §2, §3, §4
(§9) Master plates: 30 μL of individual compound dilutions including standard compound and controls of the 4 “pre-dilution plates” were transferred into a 384 “master plate” including the following concentrations 10000, 3003, 1000, 300, 100, 30, 10 and 3 μM, respectively in 90% of DMSO.
(§10) Assay plates: Identical “assay plates” were then prepared by pipetting 50 nL each of compound dilutions of the “master plates” into 384-well “assay plates” by means of a HummingBird 384-channel dispenser. These plates were used directly for the assay which was performed in a total volume of 13.55 μL. This led to a final compound concentration of 37, 11, 3.7, 1.1, 0.37, 0.11, 0.037 and 0.011 μM and a final DMSO concentration of 0.37% in the assay.

[1] = target: CREBBP bromodomain (His-CREBBP(1081-1197)) (Homo sapiens (Human), UniProt Q92793); assay: AlphaScreen in-vitro binding assay for CREBBP
Sequence of CREBBP bromodomain (His-CREBBP(1081-1197)) (Q92793 1081-1197): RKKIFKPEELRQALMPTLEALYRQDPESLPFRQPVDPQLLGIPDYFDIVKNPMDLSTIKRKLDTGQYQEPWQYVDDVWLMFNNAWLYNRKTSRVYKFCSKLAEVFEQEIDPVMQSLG
Protocol: AlphaScreen In-Vitro Binding Assay for CREBBP
In order to assess bromodomain selectivity, we set up a binding assay using the bromodomain encoded by the CREBBP gene. […] Reactions were incubated at 30° C. for 35 minutes. Subsequently 4.5 μl per well detection mix (50 mM HEPES, pH 7.5, 0.005% Tween20, 0.02% BSA, 150 mM NaCl, 45 μg/ml Ni-chelate acceptor beads, 45 μg/ml streptavidin-donor beads) (Perkin Elmer)) were added. After 60 minutes incubation at room temperature, plates were measured in a Perkin Elmer EnVision multilabel reader. IC50 values were determined from percent inhibition values at different compound concentrations by non-linear regression analysis.
as §2, §3, §4, §5

THP-1 cells = assay: Cell growth inhibition assay (CellTiter-Glo), THP-1; type: cell-based, human; conditions: THP-1, 4 days; for GI50: Homo sapiens, 96 h, half-maximal growth inhibition; for THP-1 TGI: total growth inhibition
Protocol: as §6, §7

BRD4 (His-Brd4(44-477)) = BRD4 (His-Brd4(44-477)) (Homo sapiens (Human), UniProt O60885); assay: TR-FRET in-vitro binding assay for BRD4; conditions: acetyl-histone H4 peptide
Protocol: as §1, §8, §2, §3, §4, §9, §10

K-562 cells = assay: Cell growth inhibition assay (CellTiter-Glo), K-562; type: cell-based, human; conditions: K-562, 4 days; for GI50: Homo sapiens, K562, 96 h, half-maximal growth inhibition; for K-562 TGI: total growth inhibition
Protocol: as §6, §7

[2] = AlphaScreen, acetyl-histone H4 peptide, read-out: CREBBP IC50

Sequence of BRD3 (His-Brd3(20-477)) (Q15059 20-477): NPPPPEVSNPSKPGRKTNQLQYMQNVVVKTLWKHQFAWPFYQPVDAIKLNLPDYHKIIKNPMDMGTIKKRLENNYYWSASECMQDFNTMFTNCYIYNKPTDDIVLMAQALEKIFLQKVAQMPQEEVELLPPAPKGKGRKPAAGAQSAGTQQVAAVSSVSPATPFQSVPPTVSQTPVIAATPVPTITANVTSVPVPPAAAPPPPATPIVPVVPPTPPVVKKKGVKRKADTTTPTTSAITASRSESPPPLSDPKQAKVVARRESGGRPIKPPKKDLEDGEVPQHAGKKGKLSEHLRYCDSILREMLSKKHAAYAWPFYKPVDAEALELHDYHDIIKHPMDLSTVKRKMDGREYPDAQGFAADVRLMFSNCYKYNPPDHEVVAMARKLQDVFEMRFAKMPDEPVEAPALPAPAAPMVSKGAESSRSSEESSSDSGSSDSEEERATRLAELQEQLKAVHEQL

Row | SMILES | IC50 (BRD3 (His-Brd3(20-477))) | GI50 (MV-4-11 cells) | MV-4-11 TGI (MV-4-11 cells) | IC50 (BRD2 (His-Brd2(60-472))) | IC50 [1, 2] | GI50 (THP-1 cells) | THP-1 TGI (THP-1 cells) | IC50 (BRD4 (His-Brd4(44-477))) | GI50 (K-562 cells) | K-562 TGI (K-562 cells) | IC50 [1]
1 | Cc1cc(N2C(=O)c3c(C4CC4)nn(C[C@H](O)C(F)(F)F)c3[C@H]2c2ccc(Cl)cc2)cn2c(C)nnc12 [Example 20, (R)-6-(4-chlorophenyl)-3-cyclopropyl-5-(3,8-dimethyl-[1,2,4]triazolo[4,3-a]pyridin-6-yl)-1-((S)-3,3,3-trifluoro-2-hydroxypropyl)-5,6-dihydropyrrolo[3,4-c]pyrazol-4(1H)-one] | 12 nM | 6.47 nM | 16.1 nM | 13 nM | 7900 nM | 20.9 nM | 44.7 nM | 15 nM | 96 nM | >10000 nM | –
2 | Cc1cc(N2C(=O)c3c(C4CC4)nn(-c4ccnn4C)c3C2c2ccc(Cl)cc2)nn2c(C)nnc12 (stereo not shown) [Example 25, 6-(4-chlorophenyl)-3-cyclopropyl-5-(3,8-dimethyl-[1,2,4]triazolo[4,3-b]pyridazin-6-yl)-1-(1-methyl-1H-pyrazol-5-yl)-5,6-dihydropyrrolo[3,4-c]pyrazol-4(1H)-one] | 24 nM | 6.65 nM | 15.9 nM | 32 nM | > 37000 nM | 20.1 nM | 44.4 nM | 25 nM | 91.6 nM | >10000 nM | –
3 | Cc1cc(N2C(=O)c3c(C4CC4)nn(-c4ccnn4C)c3C2c2ccc(Cl)cc2)cc2c1nnn2C (stereo not shown) [Example 21, 6-(4-chlorophenyl)-3-cyclopropyl-5-(1,4-dimethyl-1H-benzo[d][1,2,3]triazol-6-yl)-1-(1-methyl-1H-pyrazol-5-yl)-5,6-dihydropyrrolo[3,4-c]pyrazol-4(1H)-one] | 23 nM | 13.5 nM | 27.25 nM | 31 nM | 6600 nM | 22.3 nM | 44.45 nM | 17 nM | 78.8 nM | >10000 nM | –
4 | COc1cc(N2C(=O)c3c(C4CC4)nn(C)c3C2c2ccc(Cl)cc2)cn2c(C(F)F)nnc12 (stereo not shown) [Example 22, 6-(4-chlorophenyl)-3-cyclopropyl-5-(3-(difluoromethyl)-8-methoxy-[1,2,4]triazolo-[4,3-a]pyridin-6-yl)-1-methyl-5,6-dihydropyrrolo[3,4-c]pyrazol-4(1H)-one] | 230 nM | 266 nM | 574 nM | 210 nM | > 37000 nM | 814 nM | 1330 nM | 130 nM | 1180 nM | >10000 nM | –
5 | COc1ncccc1-c1n[nH]c2c1C(=O)N(c1cc(C)c3nnc(C)n3c1)C2c1ccc(Cl)cc1 (stereo not shown) [Example 10, 6-(4-chlorophenyl)-5-(3,8-dimethyl-[1,2,4]triazolo[4,3-a]pyridin-6-yl)-3-(2-methoxypyridin-3-yl)-5,6-dihydropyrrolo[3,4-c]pyrazol-4(1H)-one] | 45 nM | 34.5 nM | 64.3 nM | 48 nM | – | 60.4 nM | 136.8 nM | 30 nM | 135 nM | >10000 nM | > 37000 nM
6 | Cc1cc(N2C(=O)c3c(C4CC4)nn(C)c3[C@H]2c2ccc(Cl)cc2)nn2c(C)nnc12 [Example 24, (R)-6-(4-chlorophenyl)-3-cyclopropyl-5-(3,8-dimethyl-[1,2,4]triazolo[4,3-b]pyridazin-6-yl)-1-methyl-5,6-dihydropyrrolo[3,4-c]pyrazol-4(1H)-one] | < 11 nM | 0.643 nM | 1.57 nM | < 11 nM | 19200 nM | 1.88 nM | 4.91 nM | < 11 nM | 10.4 nM | >10000 nM | –
7 | COc1ncccc1-c1n[nH]c2c1C(=O)N(c1cc(C)c3nnc(C)n3c1)[C@@H]2c1ccc(Cl)cc1 [Example 11, (R)-6-(4-chlorophenyl)-5-(3,8-dimethyl-[1,2,4]triazolo[4,3-a]pyridin-6-yl)-3-(2-methoxypyridin-3-yl)-5,6-dihydropyrrolo[3,4-c]pyrazol-4(1H)-one] | 37 nM | 9.55 nM | 17.4 nM | 46 nM | > 37000 nM | 28.2 nM | 42.8 nM | 42 nM | 98.4 nM | >10000 nM | –
